Experimental data taken from US12077503B2, “Substituted cyclic amides and their use as herbicides” (FMC CORPORATION, priority 2015, dated 2024).

Legend:
Format in all cases: in vivo
[1] = tested on: corn (Zea mays); test: Test G Post-Emergence Protocol; conditions: Zea mays, post-emergence, 312 h, read-out: Corn damage rating; for plant injury at 15.625 g/ha: 15.625 g ai/ha, evaluated after 13 days (100=total damage to plant; 0=no damage to plant); for plant injury at 62.5 g/ha: 62.5 g ai/ha; for plant injury at 62.5 g/ha / plant injury at 250 g/ha: evaluated after 13 days, 100=total damage to plant, 0=no damage to plant; for plant injury at 250 g/ha: 250 g ai/ha
How it was run: (§1)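 Sow in soil; grow 8 d (24/16 °C, 14 h light, 65% humidity); spray 15.625/62.5/250 g/ha in acetone:water 50:50 + 0.5% Tween 20; grow on, water twice daily; score damage 0–100 at 13 d.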

[2] = tested on: barnyardgrass (Echinochloa crus-galli); test: Test G Post-Emergence Protocol; conditions: Echinochloa crus-galli, post-emergence, 312 h, read-out: Barnyardgrass damage rating; for pest or weed control at 15.625 g/ha: 15.625 g ai/ha, evaluated after 13 days (100=total damage to plant; 0=no damage to plant); for pest or weed control at 62.5 g/ha: 62.5 g ai/ha; for pest or weed control at 62.5 g/ha / pest or weed control at 250 g/ha: evaluated after 13 days, 100=total damage to plant, 0=no damage to plant; for pest or weed control at 250 g/ha: 250 g ai/ha
How it was run: as §1

[3] = tested on: ivy-leaved morning glory (Ipomoea hederacea); test: Test G Post-Emergence Protocol; conditions: Ipomoea, post-emergence, 312 h, read-out: Morningglory, Ivy-leaved damage rating; for pest or weed control at 15.625 g/ha: 15.625 g ai/ha, evaluated after 13 days (100=total damage to plant; 0=no damage to plant); for pest or weed control at 62.5 g/ha: 62.5 g ai/ha; for pest or weed control at 62.5 g/ha / pest or weed control at 250 g/ha: evaluated after 13 days, 100=total damage to plant, 0=no damage to plant; for pest or weed control at 250 g/ha: 250 g ai/ha
How it was run: as §1

[4] = tested on: giant foxtail (Setaria faberi); test: Test G Post-Emergence Protocol; conditions: Setaria faberi, post-emergence, 312 h, read-out: Foxtail, Giant damage rating; for pest or weed control at 15.625 g/ha: 15.625 g ai/ha, evaluated after 13 days (100=total damage to plant; 0=no damage to plant); for pest or weed control at 62.5 g/ha: 62.5 g ai/ha; for pest or weed control at 62.5 g/ha / pest or weed control at 250 g/ha: evaluated after 13 days, 100=total damage to plant, 0=no damage to plant; for pest or weed control at 250 g/ha: 250 g ai/ha
How it was run: as §1

[5] = tested on: redroot pigweed (Amaranthus retroflexus); test: Test G Post-Emergence Protocol; conditions: Amaranthus retroflexus, post-emergence, 312 h, read-out: Pigweed, Redroot damage rating; for pest or weed control at 15.625 g/ha: 15.625 g ai/ha, evaluated after 13 days (100=total damage to plant; 0=no damage to plant); for pest or weed control at 62.5 g/ha: 62.5 g ai/ha; for pest or weed control at 62.5 g/ha / pest or weed control at 250 g/ha: evaluated after 13 days, 100=total damage to plant, 0=no damage to plant; for pest or weed control at 250 g/ha: 250 g ai/ha
How it was run: as §1

[6] = tested on: velvetleaf (Abutilon theophrasti); test: Test G Post-Emergence Protocol; conditions: Abutilon theophrasti, post-emergence, 312 h, read-out: Velvetleaf damage rating; for pest or weed control at 15.625 g/ha: 15.625 g ai/ha, evaluated after 13 days (100=total damage to plant; 0=no damage to plant); for pest or weed control at 62.5 g/ha: 62.5 g ai/ha; for pest or weed control at 62.5 g/ha / pest or weed control at 250 g/ha: evaluated after 13 days, 100=total damage to plant, 0=no damage to plant; for pest or weed control at 250 g/ha: 250 g ai/ha
How it was run: as §1

[7] = tested on: corn (Zea mays); test: Test G Pre-Emergence Protocol; conditions: Zea mays, pre-emergence, 312 h, evaluated after 13 days; for plant injury at 15.625 g/ha: 15.625 g ai/ha; for plant injury at 15.625 g/ha / plant injury at 250 g/ha: read-out: Corn damage rating (100=total damage to plant; 0=no damage to plant); for plant injury at 62.5 g/ha: 62.5 g ai/ha, 100=total damage to plant, 0=no damage to plant, read-out: Corn damage rating; for plant injury at 250 g/ha: 250 g ai/ha
How it was run: (§2)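 Pots of seeds in standard soil were grown for one day in a glasshouse (24/16 °C day/night, 14 h light, 65% humidity), then sprayed with compound in acetone/water 50:50 with 0.5% Tween 20 at 15.625, 62.5 or 250 g/ha. Damage was scored after 13 days on a 0 (none) to 100 (total) scale.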

[8] = tested on: barnyardgrass (Echinochloa crus-galli); test: Test G Pre-Emergence Protocol; conditions: Echinochloa crus-galli, pre-emergence, 312 h, evaluated after 13 days; for pest or weed control at 15.625 g/ha: 15.625 g ai/ha; for pest or weed control at 15.625 g/ha / pest or weed control at 250 g/ha: read-out: Barnyardgrass damage rating (100=total damage to plant; 0=no damage to plant); for pest or weed control at 62.5 g/ha: 62.5 g ai/ha, 100=total damage to plant, 0=no damage to plant, read-out: Barnyardgrass damage rating; for pest or weed control at 250 g/ha: 250 g ai/ha
How it was run: as §2

[9] = tested on: ivy-leaved morning glory (Ipomoea hederacea); test: Test G Pre-Emergence Protocol; conditions: Ipomoea, pre-emergence, 312 h, evaluated after 13 days; for pest or weed control at 15.625 g/ha: 15.625 g ai/ha; for pest or weed control at 15.625 g/ha / pest or weed control at 250 g/ha: read-out: Morningglory, Ivy-leaved damage rating (100=total damage to plant; 0=no damage to plant); for pest or weed control at 62.5 g/ha: 62.5 g ai/ha, 100=total damage to plant, 0=no damage to plant, read-out: Morningglory, Ivy-leaved damage rating; for pest or weed control at 250 g/ha: 250 g ai/ha
How it was run: as §2

[10] = tested on: giant foxtail (Setaria faberi); test: Test G Pre-Emergence Protocol; conditions: Setaria faberi, pre-emergence, 312 h, evaluated after 13 days; for pest or weed control at 15.625 g/ha: 15.625 g ai/ha; for pest or weed control at 15.625 g/ha / pest or weed control at 250 g/ha: read-out: Foxtail, Giant damage rating (100=total damage to plant; 0=no damage to plant); for pest or weed control at 62.5 g/ha: 62.5 g ai/ha, 100=total damage to plant, 0=no damage to plant, read-out: Foxtail, Giant damage rating; for pest or weed control at 250 g/ha: 250 g ai/ha
How it was run: as §2

[11] = tested on: redroot pigweed (Amaranthus retroflexus); test: Test G Pre-Emergence Protocol; conditions: Amaranthus retroflexus, pre-emergence, 312 h, evaluated after 13 days; for pest or weed control at 15.625 g/ha: 15.625 g ai/ha; for pest or weed control at 15.625 g/ha / pest or weed control at 250 g/ha: read-out: Pigweed, Redroot damage rating (100=total damage to plant; 0=no damage to plant); for pest or weed control at 62.5 g/ha: 62.5 g ai/ha, 100=total damage to plant, 0=no damage to plant, read-out: Pigweed, Redroot damage rating; for pest or weed control at 250 g/ha: 250 g ai/ha
How it was run: as §2

[12] = tested on: velvetleaf (Abutilon theophrasti); test: Test G Pre-Emergence Protocol; conditions: Abutilon theophrasti, pre-emergence, 312 h, evaluated after 13 days; for pest or weed control at 15.625 g/ha: 15.625 g ai/ha; for pest or weed control at 15.625 g/ha / pest or weed control at 250 g/ha: read-out: Velvetleaf damage rating (100=total damage to plant; 0=no damage to plant); for pest or weed control at 62.5 g/ha: 62.5 g ai/ha, 100=total damage to plant, 0=no damage to plant, read-out: Velvetleaf damage rating; for pest or weed control at 250 g/ha: 250 g ai/ha
How it was run: as §2

SMILES	plant injury at 15.625 g/ha [1]	plant injury at 62.5 g/ha [1]	plant injury at 250 g/ha [1]	pest or weed control at 15.625 g/ha [2]	pest or weed control at 62.5 g/ha [2]	pest or weed control at 250 g/ha [2]	pest or weed control at 15.625 g/ha [3]	pest or weed control at 62.5 g/ha [3]	pest or weed control at 250 g/ha [3]	pest or weed control at 15.625 g/ha [4]	pest or weed control at 62.5 g/ha [4]	pest or weed control at 250 g/ha [4]	pest or weed control at 15.625 g/ha [5]	pest or weed control at 62.5 g/ha [5]	pest or weed control at 250 g/ha [5]	pest or weed control at 15.625 g/ha [6]	pest or weed control at 62.5 g/ha [6]	pest or weed control at 250 g/ha [6]	plant injury at 15.625 g/ha [7]	plant injury at 62.5 g/ha [7]	further results
CCc1cc([C@@H]2CN(C)C(=O)[C@H]2C(=O)Nc2cccc(F)c2C)ccc1Cl (racemic) [Compound 1804]	0%	0%	70%	0%	50%	60%	0%	50%	60%	0%	70%	80%	0%	0%	10%	0%	10%	10%	0%	0%	plant injury at 250 g/ha [7]: 60%; pest or weed control at 15.625 g/ha [8]: 0%; pest or weed control at 62.5 g/ha [8]: 80%; pest or weed control at 250 g/ha [8]: 90%; pest or weed control at 15.625 g/ha [9]: 0%; pest or weed control at 62.5 g/ha [9]: 0%; pest or weed control at 250 g/ha [9]: 10%; pest or weed control at 15.625 g/ha [10]: 50%; pest or weed control at 62.5 g/ha [10]: 90%; pest or weed control at 250 g/ha [10]: 90%; pest or weed control at 15.625 g/ha [11]: 0%; pest or weed control at 62.5 g/ha [11]: 20%; pest or weed control at 250 g/ha [11]: 30%; pest or weed control at 15.625 g/ha [12]: 0%; pest or weed control at 62.5 g/ha [12]: 10%; pest or weed control at 250 g/ha [12]: 30%
CN1C[C@H](c2ccc(C(F)(F)F)cc2)[C@@H](C(=O)Nc2cccc3c2C(=O)OC3)C1=O (racemic) [Compound 1669]	10%	0%	0%	0%	30%	70%	0%	20%	60%	30%	50%	80%	0%	0%	30%	0%	0%	0%	0%	0%	plant injury at 250 g/ha [7]: 0%; pest or weed control at 15.625 g/ha [8]: 0%; pest or weed control at 62.5 g/ha [8]: 0%; pest or weed control at 250 g/ha [8]: 10%; pest or weed control at 15.625 g/ha [9]: 0%; pest or weed control at 62.5 g/ha [9]: 0%; pest or weed control at 250 g/ha [9]: 10%; pest or weed control at 15.625 g/ha [10]: 0%; pest or weed control at 62.5 g/ha [10]: 20%; pest or weed control at 250 g/ha [10]: 60%; pest or weed control at 15.625 g/ha [11]: 0%; pest or weed control at 62.5 g/ha [11]: 10%; pest or weed control at 250 g/ha [11]: 20%; pest or weed control at 15.625 g/ha [12]: 0%; pest or weed control at 62.5 g/ha [12]: 0%; pest or weed control at 250 g/ha [12]: 10%
CN1C[C@@H](c2ccc(CO)cc2)[C@H](C(=O)Nc2cccc(F)c2F)C1=O (racemic) [Compound 1820]	0%	0%	0%	0%	0%	0%	0%	0%	0%	0%	0%	0%	0%	0%	0%	0%	0%	0%	0%	0%	plant injury at 250 g/ha [7]: 0%; pest or weed control at 15.625 g/ha [8]: 0%; pest or weed control at 62.5 g/ha [8]: 0%; pest or weed control at 250 g/ha [8]: 0%; pest or weed control at 15.625 g/ha [9]: 0%; pest or weed control at 62.5 g/ha [9]: 0%; pest or weed control at 250 g/ha [9]: 0%; pest or weed control at 15.625 g/ha [10]: 0%; pest or weed control at 62.5 g/ha [10]: 0%; pest or weed control at 250 g/ha [10]: 0%; pest or weed control at 15.625 g/ha [11]: 0%; pest or weed control at 62.5 g/ha [11]: 0%; pest or weed control at 250 g/ha [11]: 0%; pest or weed control at 15.625 g/ha [12]: 0%; pest or weed control at 62.5 g/ha [12]: 0%; pest or weed control at 250 g/ha [12]: 0%
